Reference: ChEMBL document CHEMBL1132582, “Bicyclic tripeptide mimetics with reverse turn inducing properties” (J Med Chem, 1999)

Key:
[1] = biological target: T1, Angiotensin II receptor (AT-1) type-1 (Rattus norvegicus, UniProt P29089+P25095); experiment: Compound was evaluated in a radioligand binding assay to displace [125I]-Ang II from Angiotensin II receptor, type 1 in rat liver membranes; format: cell membranes, Membrane
T1 sequence (P29089 whole entry): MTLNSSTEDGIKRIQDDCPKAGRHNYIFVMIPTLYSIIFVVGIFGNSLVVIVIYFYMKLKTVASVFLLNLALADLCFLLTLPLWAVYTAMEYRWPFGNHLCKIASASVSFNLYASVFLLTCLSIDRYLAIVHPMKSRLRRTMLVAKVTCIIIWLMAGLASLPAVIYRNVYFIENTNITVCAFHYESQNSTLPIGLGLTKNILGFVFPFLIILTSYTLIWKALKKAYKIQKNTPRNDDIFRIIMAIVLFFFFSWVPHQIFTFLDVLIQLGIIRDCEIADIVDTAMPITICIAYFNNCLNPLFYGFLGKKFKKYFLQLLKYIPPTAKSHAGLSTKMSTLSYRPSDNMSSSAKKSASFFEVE
T1 sequence (P25095 whole entry): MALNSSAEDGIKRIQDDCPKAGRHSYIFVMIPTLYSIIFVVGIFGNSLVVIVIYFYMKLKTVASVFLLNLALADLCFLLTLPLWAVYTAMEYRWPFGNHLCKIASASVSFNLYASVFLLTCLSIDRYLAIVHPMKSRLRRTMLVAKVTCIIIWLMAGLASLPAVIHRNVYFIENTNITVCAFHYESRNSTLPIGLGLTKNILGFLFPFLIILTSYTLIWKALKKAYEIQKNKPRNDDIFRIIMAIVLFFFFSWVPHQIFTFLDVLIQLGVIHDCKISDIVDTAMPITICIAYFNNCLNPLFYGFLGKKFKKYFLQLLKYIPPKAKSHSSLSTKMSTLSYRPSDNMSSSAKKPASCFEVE

[2] = biological target: T1, Angiotensin II receptor (AT-1) type-1; experiment: Compound was evaluated in a binding assay using Chinese hamster ovary (CHO) cells stably expressing the rat Angiotensin II receptor, type 1; format: cell-based

IC50 [1]: >= 10 uM | IC50 [2]: >= 10 uM
Compound: NC(N)=NCCC[C@H](NC(=O)[C@@H](N)CC(=O)O)C(=O)N[C@H]1C[C@H]2SC[C@@H](C(=O)N[C@@H](Cc3c[nH]cn3)C(=O)N3CCC[C@H]3C(=O)N[C@@H](Cc3ccccc3)C(=O)O)NC(=O)[C@H](Cc3ccc(O)cc3)N2C1=O
